These results are taken from article PMC10708954, “Exploring the Effect of Compound Glycyrrhizin and Silybinin on the Metabolism of Pexidartinib in Rats Based on CYP3A4 and CYP2C9” (Advances in Pharmacological and Pharmaceutical Sciences, 2023).

Like-named read-outs stand apart in the source and are kept apart here.

Data set [1] is described as follows: Pharmacokinetics of PXD in rat plasma (HPLC-UV) after 14 days pretreatment with saline, silybinin or CG. It counts as in vivo, rats. The note with it: for Cmax / Tmax / half-life / CL/F / Vd/F: rat, plasma, rats, n = 6, mean ± SD; for CL/F: read-out: CLz/F (converted); for Vd/F: read-out: Vz/F. How it is done: Group B was gavaged with silybinin aqueous solution 150 mg/kg (containing silybinin 21 mg/kg), group C was gavaged with compound glycyrrhizin aqueous solution 13.5 mg/kg (containing glycyrrhizin 4.5 mg/kg), and in contrast, group A was gavaged with an equal amount of saline. After 14-days of administration, three groups were given 40 mg/kg PXD. 0.5 mL of blood was taken from the caudal vein at 0.25, 0.50, 1.00, 2.00, 3.00, 4.00, 6.00, 8.00, 12.00, 24.00, and 48.00 h after being gavaged and added to EP tubes containing heparin, followed by centrifugation at 3500 rpm for 15 min, and finally the supernatant was stored at −20°C and stored for measurement.
The apparatus used in the chromatographic analysis of this work was an 1100 series high-performance liquid chromatography (product of Agilent, USA), which mainly included a vacuum degasser, a four-component infusion pump, an automatic sampler, a column temperature box, and a DAD detector. The fundamental steps were as follows. First of all, the chromatographic separation was carried out on a Venusil C18 column (4.6 mm × 250 mm, 5 μm). Subsequently, the analytes were thoroughly separated under the mobile phase water, acetonitrile, and 0.2% TFA (37 : 43 : 20).
After preparatory 2 ml EP tubes, 300 μL of plasma samples and 15 μL of 10 ng/ml of alpelisib working solution were pipetted separately, followed by 300 μL of 10% sodium carbonate solution, mixed well, and then 1.0 ml of ethyl acetate was included to sediment the proteins. The mixture was vortexed for 2.0 min and subsequently centrifuged at 3500 rpm for 20 min at 4°C. At last, 900 μL of the upper organic phase was transferred to a fresh EP tube, blown dry with an air stream at 50°C, and then redissolved with 100 μL of mobile phase, and 20 μL was sampled for the assay.
In the current study, the drug concentration of PXD in rat plasma was plotted versus the time curve as well as all the bar graphs using GraphPad Prism 8.0 software. Then, DAS (Drug And Statistics) 2.0 software (Shanghai University of Traditional Chinese Medicine, China) was employed to get the main pharmacokinetic parameters of the analytes in nonatrial mode. Then, a one-way analysis of variance (ANOVA) was performed using SPSS (statistical product and service solutions) 25.0 software, while finally, an independent samples t-test was applied to the comparison of major pharmacokinetic parameters between the two groups, where Tmax was tested using rank sum test. Statistical significance was indicated by P < 0.05.

Another data set deals with CYP3A4. As to the kind of experiment: Western blot of CYP3A4 protein expression in rat liver. How it is done:
(§1) The rats in all five groups were gavaged once a day for fourteen consecutive days. Groups E and G were gavaged with 150 mg/kg aqueous solution of silybinin (containing 21 mg/kg silybinin), groups F and H were gavaged with 13.5 mg/kg aqueous solution of compound glycyrrhizin (containing 4.5 mg/kg glycyrrhizin), and from the 15-days onwards, groups G and H were given 40 mg/kg of PXD per day for a total of 7-days, and equal amounts of saline were given to groups E and F. Group D was gavaged with equal amounts of saline until the end of the experiment. After gavage for 21 days, rats in each group were anesthetized with 10% urethane, and their fresh livers were snap-frozen in liquid nitrogen and stored at −80°C for subsequent experiments.
(§2) Fresh livers were removed at −80°C and weighed portions were homogenized in ep tubes with lysis buffer containing 0.1% PMSF. We prepared 12% SDS-PAGE routine gel, then each group took the corresponding protein samples and prestained Marker samples, 80 V constant voltage for 90 min, the voltage was adjusted to 120 V, and electrophoresis was continued for 30 min. […] Imaging was performed using Imgage-ProPlus 6.0 software and quantitative analysis was performed using Image J software.
(In general: A western blot detects proteins with antibodies after separation by electrophoresis.)

The test system of another data set is CYP2C9. Nature of the data set: Western blot of CYP2C9 protein expression in rat liver. As to the method:
as §1, §2

Where [2] appears, read: group B (silybinin pretreatment) compared to group A, P < 0.01.
Setting [3] is: group B (silybinin pretreatment) compared to group A, P < 0.05.
Setting [4] is: group C (CG pretreatment) compared to group A, P < 0.05.
[5] abbreviates: po, 40 mg/kg, Group A (control: saline 14 days, then single oral 40 mg/kg PXD).
The mark [6] stands for this setting: po, 40 mg/kg, Group B (silybinin aqueous solution 150 mg/kg, containing silybinin 21 mg/kg, 14 days, then single oral 40 mg/kg PXD).
Where [7] appears, read: Group C (compound glycyrrhizin aqueous solution 13.5 mg/kg, containing glycyrrhizin 4.5 mg/kg, 14 days, then single oral 40 mg/kg PXD).

What is called Cmax is the highest concentration seen after dosing. One may read the Tmax as the time from dosing to the highest level. Usually half-life stands for the time in which the quantity being followed falls by half. `FC(F)(F)c1ccc(CNc2ccc(Cc3c[nH]c4ncc(Cl)cc34)cn2)cn1` [PXD, Pexidartinib]: in data set [1] (setting [2]), the “decrease of Vz/F” value is given as 31.78%, the “increase of AUC0⟶t” value stood at 28.97% and the “increase of AUC0⟶∞” value turned out to be 26.74%. Also, in data set [1] (setting [3]), the “decrease of CLz/F” value is reported as 20.69% and the “increase of Cmax” value was determined as 20.72%. Further, the “increase of Cmax” value in data set [1] (group C (CG pretreatment) compared to group A, P < 0.01) was found to be 36.25%. Also, in data set [1] (setting [4]), the “increase of AUC0⟶t” value was 20.98% and the “increase of AUC0⟶∞” value is 21.22%. For the same compound, in data set [1] (setting [5]), the Cmax was 10800 ± 1140 ng/mL, the time to peak (Tmax) came to 4.33 ± 1.37 h, the half-life is 9.83 ± 3.13 h and the CL/F was 4.83 mL/min/kg. Moreover, the Vd/F in data set [1] (setting [5]) stood at 4.09 ± 1.16 L/kg. In data set [1] (setting [6]), the Cmax came to 13000 ± 1160 ng/mL, the Tmax came out at 4.17 ± 0.98 h, the half-life was 8.49 ± 3.3 h and the CL/F was 3.83 mL/min/kg. Besides, the Vd/F in data set [1] (setting [6]) was 2.79 ± 1.03 L/kg. In data set [1] (setting [7]), the highest concentration (Cmax) turned out to be 14700 ± 2390 ng/mL, the time to peak (Tmax) was determined as 4.1 ± 1.1 h, the half-life was 5.23 ± 1.13 h and the CL/F was 4.17 mL/min/kg. In data set [1] (setting [7]), the Vd/F was determined as 1.81 ± 0.3 L/kg. The “effect of PXD on the protein expression of CYP3A4” value in the data set with CYP3A4 (40 mg/kg PXD per day for 7 days after silybinin or CG) is on record as “inducing effect”. The “effect of PXD on the protein expression of CYP2C9” value in the data set with CYP2C9 (rat, in vivo, 40 mg/kg) is given as “inducing effect”.
For `COc1cc(C2Oc3cc([C@H]4Oc5cc(O)cc(O)c5C(=O)[C@@H]4O)ccc3OC2CO)ccc1O` (stereo partly drawn) [silybinin, Silybinin], the “protein expression level of CYP3A4” value with CYP3A4 (gavage 21 days, compared with the control group, P < 0.05 and P < 0.01) was “decreased”. In addition, the “protein expression level of CYP2C9” value with CYP2C9 (rat liver, gavage 21 days, compared with the control group, P < 0.05 and P < 0.01) is listed as “decreased”.
